Tested on: MV-4-11 cells
Assay: Gene expression microarray analysis (Affymetrix PrimeView) and GSEA
Format: cell-based, human
Parameters: RFU PODN (11730768_x_at) / Fold change /veh PODN (11730768_x_at) / RFU LINC00158 (11744669_a_at) / Fold change /veh LINC00158 (11744669_a_at) / RFU DUSP10 (11751237_a_at) / Fold change /veh DUSP10 (11751237_a_at) / RFU ID3 (11757404_x_at) / Fold change /veh ID3 (11757404_x_at) / RFU PLEKHG5 (11737974_s_at) / Fold change /veh PLEKHG5 (11737974_s_at) / RFU LRRC4B (11730491_at) / Fold change /veh LRRC4B (11730491_at) / RFU GIMAP4 (11747438_a_at) / Fold change /veh GIMAP4 (11747438_a_at) / RFU KRT8 (11758183_x_at) / Fold change /veh KRT8 (11758183_x_at) / RFU CNN1 (11734310_a_at) / Fold change /veh CNN1 (11734310_a_at) / RFU VPS37D (11726825_at) / Fold change /veh VPS37D (11726825_at) / RFU C10orf10 (11716522_x_at) / Fold change /veh C10orf10 (11716522_x_at) / RFU KIR2DL2 /// KIR2DL4 /// KIR2DL5A /// KIR2DL5B /// KIR2DS1 /// KIR2DS2 /// KIR2DS3 /// KIR2DS4 /// KIR3DL3 /// KIR3DL3 /// KIR3DS1 (11738374_at) / Fold change /veh KIR2DL2 /// KIR2DL4 /// KIR2DL5A /// KIR2DL5B /// KIR2DS1 /// KIR2DS2 /// KIR2DS3 /// KIR2DS4 /// KIR3DL3 /// KIR3DL3 /// KIR3DS1 (11738374_at) / RFU C1QL1 (11718748_at) / Fold change /veh C1QL1 (11718748_at) / RFU TMPRSS4 (11747572_a_at) / Fold change /veh TMPRSS4 (11747572_a_at) / RFU HAMP (11756126_x_at) / Fold change /veh HAMP (11756126_x_at) / RFU RNFT2 (11725882_a_at) / Fold change /veh RNFT2 (11725882_a_at) / RFU NR4A2 (11747474_a_at) / Fold change /veh NR4A2 (11747474_a_at) / RFU ABCC12 (11746883_a_at) / Fold change /veh ABCC12 (11746883_a_at) / RFU TMEM136 (11760407_x_at) / Fold change /veh TMEM136 (11760407_x_at) / RFU CLDN22 /// WWC2 (11732394_at) / Fold change /veh CLDN22 /// WWC2 (11732394_at) / RFU HLA-DPB1 (11760878_x_at) / Fold change /veh HLA-DPB1 (11760878_x_at) / RFU SPINT1 (11716480_a_at) / Fold change /veh SPINT1 (11716480_a_at) / RFU GAP43 (11754022_s_at) / Fold change /veh GAP43 (11754022_s_at) / RFU A4GNT (11735810_at) / Fold change /veh A4GNT (11735810_at) / RFU PRB3 (11715151_x_at) / Fold change /veh PRB3 (11715151_x_at) / RFU TUBB4B (11761932_at) / Fold change /veh TUBB4B (11761932_at) / RFU CAPN14 (11732068_a_at) / Fold change /veh CAPN14 (11732068_a_at) / RFU TMCC2 (11721928_a_at) / Fold change /veh TMCC2 (11721928_a_at) / RFU IRGQ (11745062_a_at) / Fold change /veh IRGQ (11745062_a_at) / RFU FAM174B (11720279_a_at) / Fold change /veh FAM174B (11720279_a_at) / RFU TMPRSS4 (11748680_a_at) / Fold change /veh TMPRSS4 (11748680_a_at) / RFU FAM212B (11763350_a_at) / Fold change /veh FAM212B (11763350_a_at) / RFU PLEKHG5 (11743358_a_at) / Fold change /veh PLEKHG5 (11743358_a_at) / RFU ZSCAN30 (11745921_a_at) / Fold change /veh ZSCAN30 (11745921_a_at) / RFU CMKLR1 (11741424_a_at) / Fold change /veh CMKLR1 (11741424_a_at) / RFU LOC101060620 /// MAPK8IP1 (11723275_at) / Fold change /veh LOC101060620 /// MAPK8IP1 (11723275_at) / RFU SPTSSB (11747773_x_at) / Fold change /veh SPTSSB (11747773_x_at) / RFU PRSS12 (11739890_at) / Fold change /veh PRSS12 (11739890_at) / RFU BIN1 (11741810_x_at) / Fold change /veh BIN1 (11741810_x_at) / RFU WNT11 (11732464_a_at) / Fold change /veh WNT11 (11732464_a_at) / RFU C10orf10 (11716521_a_at) / Fold change /veh C10orf10 (11716521_a_at) / RFU C5orf56 (11738089_at) / Fold change /veh C5orf56 (11738089_at) / RFU CYB561 (11721691_x_at) / Fold change /veh CYB561 (11721691_x_at) / RFU ANKRD19P (11752326_a_at) / Fold change /veh ANKRD19P (11752326_a_at) / RFU OR2T12 /// OR2T33 /// OR2T8 (11738714_s_at) / Fold change /veh OR2T12 /// OR2T33 /// OR2T8 (11738714_s_at) / RFU VCAN (11748164_a_at) / Fold change /veh VCAN (11748164_a_at) / RFU JSRP1 (11732532_at) / Fold change /veh JSRP1 (11732532_at) / RFU KRTAP10-11 (11738290_x_at) / Fold change /veh KRTAP10-11 (11738290_x_at) / RFU MYO3A (11730013_a_at) / Fold change /veh MYO3A (11730013_a_at) / RFU EBF3 (11725865_a_at) / Fold change /veh EBF3 (11725865_a_at) / RFU CAMK2N1 (11719241_x_at) / Fold change /veh CAMK2N1 (11719241_x_at) / RFU C5orf56 (11738088_a_at) / Fold change /veh C5orf56 (11738088_a_at) / RFU OLFML3 (11715873_a_at) / Fold change /veh OLFML3 (11715873_a_at) / RFU LOC100653217 /// NTM (11731650_a_at) / Fold change /veh LOC100653217 /// NTM (11731650_a_at) / RFU MAPK11 (11762145_a_at) / Fold change /veh MAPK11 (11762145_a_at) / RFU FIZ1 (11724087_x_at) / Fold change /veh FIZ1 (11724087_x_at) / RFU OASL (11726364_x_at) / Fold change /veh OASL (11726364_x_at) / RFU SOX15 (11748057_x_at) / Fold change /veh SOX15 (11748057_x_at) / RFU CD79A (11719716_a_at) / Fold change /veh CD79A (11719716_a_at) / RFU HIST1H1D (11736915_at) / Fold change /veh HIST1H1D (11736915_at) / RFU CASKIN2 (11723855_a_at) / Fold change /veh CASKIN2 (11723855_a_at) / RFU LOC730098 (11760151_x_at) / Fold change /veh LOC730098 (11760151_x_at) / RFU OR4N2 (11742367_at) / Fold change /veh OR4N2 (11742367_at) / RFU PRRT2 (11749266_a_at) / Fold change /veh PRRT2 (11749266_a_at) / RFU SNX32 (11753110_a_at) / Fold change /veh SNX32 (11753110_a_at) / RFU CDHR5 (11726645_a_at) / Fold change /veh CDHR5 (11726645_a_at) / RFU RCAN1 (11760418_a_at) / Fold change /veh RCAN1 (11760418_a_at) / RFU FAM167A (11723789_a_at) / Fold change /veh FAM167A (11723789_a_at) / RFU FAM26E (11764081_at) / Fold change /veh FAM26E (11764081_at) / RFU ISYNA1 (11749810_s_at) / Fold change /veh ISYNA1 (11749810_s_at) / RFU ACY1 (11761880_at) / Fold change /veh ACY1 (11761880_at) / RFU 11764098_at / Fold change /veh 11764098_at / RFU SAMD14 (11745864_x_at) / Fold change /veh SAMD14 (11745864_x_at) / RFU NPB (11741838_a_at) / Fold change /veh NPB (11741838_a_at) / RFU TMPRSS6 (11731388_a_at) / Fold change /veh TMPRSS6 (11731388_a_at) / RFU KRTAP10-2 (11738614_at) / Fold change /veh KRTAP10-2 (11738614_at) / RFU ARHGAP8 /// PRR5-ARHGAP8 (11727945_x_at) / Fold change /veh ARHGAP8 /// PRR5-ARHGAP8 (11727945_x_at) / RFU KRTAP5-7 /// NADSYN1 (11734609_at) / Fold change /veh KRTAP5-7 /// NADSYN1 (11734609_at) / RFU RASL12 (11751679_a_at) / Fold change /veh RASL12 (11751679_a_at) / RFU CDKN2B (11736163_a_at) / Fold change /veh CDKN2B (11736163_a_at) / RFU PRF1 (11729649_at) / Fold change /veh PRF1 (11729649_at) / RFU, ZNF638 /// ZNF638-IT1 / Fold change vs veh, ZNF638 /// ZNF638-IT1 / RFU, PANK3 / Fold change vs veh, PANK3 / RFU, SH3YL1 / Fold change vs veh, SH3YL1 / RFU, ZEB2 / Fold change vs veh, ZEB2 / RFU, NRIP1 / Fold change vs veh, NRIP1 / RFU, PTTG1IP / Fold change vs veh, PTTG1IP / RFU, CAPN2 / Fold change vs veh, CAPN2 / RFU, MED14 / Fold change vs veh, MED14 / RFU, SNORA58 / Fold change vs veh, SNORA58 / RFU, C1orf63 / Fold change vs veh, C1orf63 / RFU, LRRFIP1 / Fold change vs veh, LRRFIP1 / RFU, NDUFAF7 / Fold change vs veh, NDUFAF7 / RFU, SLC12A2 / Fold change vs veh, SLC12A2 / RFU, IBTK / Fold change vs veh, IBTK / RFU, ESF1 / Fold change vs veh, ESF1 / Fold change vs veh, TMEM50B / RFU, TAOK1 / Fold change vs veh, TAOK1 / RFU, ACBD3 / Fold change vs veh, ACBD3 / RFU, TMA16 / Fold change vs veh, TMA16 / RFU, RWDD3 / Fold change vs veh, RWDD3 / RFU, BCAT1 / Fold change vs veh, BCAT1 / RFU, EDEM3 / Fold change vs veh, EDEM3 / RFU, TMEM33 / Fold change vs veh, TMEM33 / RFU, WDR75 / Fold change vs veh, WDR75 / RFU, AHCTF1 / Fold change vs veh, AHCTF1 / RFU, TFRC / Fold change vs veh, TFRC / RFU, ZDHHC17 / Fold change vs veh, ZDHHC17 / RFU, NOM1 / Fold change vs veh, NOM1 / RFU, ARL8B / Fold change vs veh, ARL8B / RFU, ZBTB11 / Fold change vs veh, ZBTB11 / RFU, TAMM41 / Fold change vs veh, TAMM41 / RFU, KIAA1704 /// LOC100996395 / Fold change vs veh, KIAA1704 /// LOC100996395 / RFU, ING1 / Fold change vs veh, ING1 / RFU, TRMT61B / Fold change vs veh, TRMT61B / RFU, FUBP3 / Fold change vs veh, FUBP3 / RFU, TP53 / Fold change vs veh, TP53 / RFU, TNKS2 / Fold change vs veh, TNKS2 / RFU, ZFP14 / Fold change vs veh, ZFP14 / RFU, ACTR2 / Fold change vs veh, ACTR2 / RFU, PPP3R1 / Fold change vs veh, PPP3R1 / RFU, PIK3R1 / Fold change vs veh, PIK3R1 / RFU, HNRNPA1 / Fold change vs veh, HNRNPA1 / RFU, RNF170 / Fold change vs veh, RNF170 / RFU, ZNF28 / Fold change vs veh, ZNF28 / RFU, RNGTT / Fold change vs veh, RNGTT / RFU, OGT / Fold change vs veh, OGT / RFU, BRD1 / Fold change vs veh, BRD1 / RFU, MARS / Fold change vs veh, MARS / RFU, ZNF655 / Fold change vs veh, ZNF655 / RFU, FAHD1 / Fold change vs veh, FAHD1 / RFU, BDP1 / Fold change vs veh, BDP1 / RFU, LRRCC1 / Fold change vs veh, LRRCC1 / RFU, ARID1A / Fold change vs veh, ARID1A / RFU, ZNF146 / Fold change vs veh, ZNF146 / RFU, ZNF330 / Fold change vs veh, ZNF330 / RFU, GPN3 / Fold change vs veh, GPN3 / RFU, C9orf123 / Fold change vs veh, C9orf123 / RFU, N4BP2L2 / Fold change vs veh, N4BP2L2 / RFU, ARFIP1 / Fold change vs veh, ARFIP1 / RFU, FAM179B / Fold change vs veh, FAM179B / RFU, BCL10 / Fold change vs veh, BCL10 / RFU, UHRF1BP1L / Fold change vs veh, UHRF1BP1L / RFU, BET1 / Fold change vs veh, BET1 / RFU, CNOT2 / Fold change vs veh, CNOT2 / RFU, ZNF268 / Fold change vs veh, ZNF268 / Fold change vs veh, ZNF507 / RFU, DGCR2 / Fold change vs veh, DGCR2 / RFU, WDSUB1 / Fold change vs veh, WDSUB1 / Fold change vs veh, HSP90B1 /// MIR3652 / RFU, ADSS / Fold change vs veh, ADSS / RFU, GK / Fold change vs veh, GK / RFU, ZNF148 / Fold change vs veh, ZNF148 / RFU, TAF9 / Fold change vs veh, TAF9 / RFU, SLC1A5 / Fold change vs veh, SLC1A5 / RFU, SLMO2 / Fold change vs veh, SLMO2 / RFU, ABCC4 / Fold change vs veh, ABCC4 / RFU, LOC101060439 /// RAP1B / Fold change vs veh, LOC101060439 /// RAP1B / RFU, RFX7 / Fold change vs veh, RFX7 / RFU, GTPBP10 / Fold change vs veh, GTPBP10 / RFU, CNEP1R1 / Fold change vs veh, CNEP1R1 / RFU, BIVM-ERCC5 /// ERCC5 / Fold change vs veh, BIVM-ERCC5 /// ERCC5 / RFU, ILF3 / Fold change vs veh, ILF3 / RFU 11762660_at / Fold change /veh 11762660_at / RFU VCAN (11757783_s_at) / Fold change /veh VCAN (11757783_s_at) / RFU DDX43 (11728927_at) / Fold change /veh DDX43 (11728927_at) / RFU KRT8 (11758188_x_at) / Fold change /veh KRT8 (11758188_x_at) / RFU NKD1 (11759106_at) / Fold change /veh NKD1 (11759106_at) / RFU SRD5A1 (11742802_a_at) / Fold change /veh SRD5A1 (11742802_a_at) / RFU TPSAB1 /// TPSB2 (11721975_s_at) / Fold change /veh TPSAB1 /// TPSB2 (11721975_s_at) / RFU GSTM3 (11746129_a_at) / Fold change /veh GSTM3 (11746129_a_at) / RFU IL23R (11737362_x_at) / Fold change /veh IL23R (11737362_x_at) / RFU TMEM51 (11727254_a_at) / Fold change /veh TMEM51 (11727254_a_at) / RFU PIWIL2 (11732686_x_at) / Fold change /veh PIWIL2 (11732686_x_at) / RFU ORM1 (11744905_x_at) / Fold change /veh ORM1 (11744905_x_at) / RFU CCDC152 (11743942_at) / Fold change /veh CCDC152 (11743942_at) / RFU ECM1 (11717891_a_at) / Fold change /veh ECM1 (11717891_a_at) / RFU IL23R (11748794_a_at) / Fold change /veh IL23R (11748794_a_at) / RFU TNFAIP8L3 (11732012_x_at) / Fold change /veh TNFAIP8L3 (11732012_x_at) / RFU MBOAT4 (11741988_at) / Fold change /veh MBOAT4 (11741988_at) / RFU 11764193_at / Fold change /veh 11764193_at / RFU TMEM53 (11763286_at) / Fold change /veh TMEM53 (11763286_at) / RFU MAGEB2 (11727129_at) / Fold change /veh MAGEB2 (11727129_at) / RFU TMEM200A (11744735_a_at) / Fold change /veh TMEM200A (11744735_a_at) / RFU CCDC152 (11751479_a_at) / Fold change /veh CCDC152 (11751479_a_at) / RFU FAM211A (11726209_a_at) / Fold change /veh FAM211A (11726209_a_at) / RFU RGS16 (11746705_a_at) / Fold change /veh RGS16 (11746705_a_at) / RFU VCAN (11755009_s_at) / Fold change /veh VCAN (11755009_s_at) / RFU RHOB (11743442_s_at) / Fold change /veh RHOB (11743442_s_at) / RFU RGS16 (11720943_a_at) / Fold change /veh RGS16 (11720943_a_at) / RFU RGS16 (11720944_at) / Fold change /veh RGS16 (11720944_at) / RFU, VPS4B / Fold change vs veh, VPS4B / RFU, CREB1 / Fold change vs veh, CREB1 / RFU, DNAJC13 / Fold change vs veh, DNAJC13 / RFU, GNAQ / Fold change vs veh, GNAQ / RFU, CDK5R1 / Fold change vs veh, CDK5R1 / RFU, ZRANB3 / Fold change vs veh, ZRANB3 / RFU, CUL4A / Fold change vs veh, CUL4A / RFU, CCNY / Fold change vs veh, CCNY / RFU, UFL1 / Fold change vs veh, UFL1 / RFU, COG3 / Fold change vs veh, COG3 / RFU, DIAPH2 / Fold change vs veh, DIAPH2 / RFU, SKA2 / Fold change vs veh, SKA2 / RFU, AFF3 / Fold change vs veh, AFF3 / RFU, LMF1 / Fold change vs veh, LMF1 / RFU, IPO11 / Fold change vs veh, IPO11 / RFU, DFFB / Fold change vs veh, DFFB / RFU, FOXP1 / Fold change vs veh, FOXP1 / RFU, CARD8 / Fold change vs veh, CARD8 / RFU, STRN3 / Fold change vs veh, STRN3 / RFU, ADK / Fold change vs veh, ADK / RFU, RASSF2 / Fold change vs veh, RASSF2 / RFU, WIPF1 / Fold change vs veh, WIPF1 / RFU, LARP1B / Fold change vs veh, LARP1B / RFU, RASA1 / Fold change vs veh, RASA1 / RFU, RB1 / Fold change vs veh, RB1 / RFU, PPFIA1 / Fold change vs veh, PPFIA1 / RFU, MAT2A / Fold change vs veh, MAT2A / RFU, CCT5 / Fold change vs veh, CCT5 / RFU, WDR92 / Fold change vs veh, WDR92 / RFU, CUX1 / Fold change vs veh, CUX1 / RFU, TTC7A / Fold change vs veh, TTC7A / RFU, TMEM135 / Fold change vs veh, TMEM135 / RFU, DEPTOR / Fold change vs veh, DEPTOR / RFU, CPM / Fold change vs veh, CPM / RFU, DNAJB6 / Fold change vs veh, DNAJB6 / RFU, CACNA2D3 / Fold change vs veh, CACNA2D3 / RFU, DTX4 / Fold change vs veh, DTX4 / RFU, TFCP2 / Fold change vs veh, TFCP2 / RFU, GMCL1 /// GMCL1P1 / Fold change vs veh, GMCL1 /// GMCL1P1 / RFU, AEBP2 / Fold change vs veh, AEBP2 / RFU, SNHG1 /// SNORD22 /// SNORD25 /// SNORD26 /// SNORD27 /// SNORD28 /// SNORD29 /// SNORD31 / Fold change vs veh, SNHG1 /// SNORD22 /// SNORD25 /// SNORD26 /// SNORD27 /// SNORD28 /// SNORD29 /// SNORD31 / Fold change (Aza/veh), C12orf56 (ProbeSet 11735607_a_at) / Fold change (ACY-1035/veh), C12orf56 (ProbeSet 11735607_a_at) / Fold change (Aza/veh), FGFR1OP (ProbeSet 11751329_s_at) / Fold change (ACY-1035/veh), FGFR1OP (ProbeSet 11751329_s_at) / Fold change (Aza/veh), VPS36 (ProbeSet 11739960_a_at) / Fold change (ACY-1035/veh), VPS36 (ProbeSet 11739960_a_at) / RFU SYPL1 (11715823_x_at) / Fold change /veh SYPL1 (11715823_x_at) / RFU IGFBP7 (11715501_s_at) / Fold change /veh IGFBP7 (11715501_s_at) / RFU REEP3 (11722064_at) / Fold change /veh REEP3 (11722064_at) / RFU IGLL1 (11728026_x_at) / Fold change /veh IGLL1 (11728026_x_at): dose or concentration left out as unconfirmed
Conditions: ProbeSet 11728314_at; LIST B

`Nc1ncn([C@@H]2O[C@H](CO)[C@@H](O)[C@H]2O)c(=O)n1` [azacitidine] was tested, and the “RFU, ZNF148” value was 202.48 RFU.

— PMC5218480 (PLoS ONE, 2017)
